Key:
[1] = tested on: CD3 T cells co-cultured with autologous LCs; assay: T cell proliferation induced by treated LCs (alamarBlue); format: cell-based, human; details: 7 days co-culture
[2] = Solubilizing HPV E6 peptides in buffer; format: physicochemical
Experimental: We attempted to make a pharmaceutical formulation with four HPV E6 peptides. The 4 peptides were peptides consisting of residues 1-45, 46-80, 81-115, and 116-158 of SEQ ID NO:1. Each of the peptides was amidated at its carboxyl terminus and acetylated at its amino terminus. The peptides were each chemically synthesized.
For the pharmaceutical formulation, this was mixed with trehalose as a stabilizing agent and glycine as tonicity modifier. The final concentrations of the formulation were 10 mM glutamate, 1.0% w/v trehalose, 2.0% w/v glycine, and 0.714 mg/ml each of the four peptides.

| Substance | Subjects with measurable proliferation (increased fluorescence of ≥5000) [1] | T-cell proliferation ([1]; over media) | Solubility ([2]; added to 10 mM glutamate, pH 4.0 solution already containing solubilized E6 1-45, E6 46-80, E6 116-158, 5 mg/ml for each of the four peptides) | Solubility ([2]; alone, in any suitable buffer for manufacturing) |
| --- | --- | --- | --- | --- |
| tetanus toxoid | subjects 2 and 5 | no significant increase over media | – | – |
| Ac-SEYRHYCYSLYGTTLEQQYNK PLCDLLIRCINCQK-NH2 [E6 81-115] | – | – | could be solubilized and will stay soluble | insoluble |

Reference: patent US9974849B2, “Human Papilloma virus therapeutic vaccine” (The Board of Trustees of the University of Arkansas, priority 2013, dated 2018)
